US20240065988A1, “COMBINED USE OF KETAMINE AND RETIGABINE (EZOGABINE) FOR THE TREATMENT OF PSYCHIATRIC DISORDERS” (Yeda Research and Development Co. Ltd., priority 2021, published 2024)

System: single cells from the ventral hippocampus (vHipp)
Experiment: Single-cell RNA sequencing (scRNA-seq) of the ventral hippocampus after ketamine treatment; differential expression per cell type
[1] = Oligodendrocytes, ketamine 10 mg/kg i.p. vs saline
[2] = Vascular Cells, ketamine 10 mg/kg i.p. vs saline

## CNC1(c2ccccc2Cl)CCCCC1=O (racemic) [ketamine, (R,S)-ketamine]
[1]
  Zfp827 Change: Up
  Zfp827 logFC: 0.208
P3h3, Glut Neurons
  Change: Down
  Mean-Ket: 2.278
  logFC: −0.111
Pan3, Astrocytes
  Change: Down
  Mean-Ket: 1.194
  logFC: −0.179
Pbld1, Glut Neurons
  Change: Down
  Mean-Ket: 3.387
  logFC: −0.106
Poldip2, Astrocytes
  Change: Down
  Mean-Ket: 1.255
  logFC: −0.142
Polr2c, Glut Neurons
  Change: Down
  Mean-Ket: 2.412
  logFC: −0.101
Ppan, Glut Neurons
  Change: Down
  Mean-Ket: 2.680
  logFC: −0.102
Ppp1r16b, Astrocytes
  Change: Down
  Mean-Ket: 2.539
  logFC: −0.227
Rhpn2, Glut Neurons
  Change: Down
  Mean-Ket: 1.601
  logFC: −0.114
Rpl6, Glut Neurons
  Change: Down
  Mean-Ket: 0.808
  logFC: −0.190
Rpl41, Glut Neurons
  Change: Down
  Mean-Ket: 2.239
  logFC: −0.192
Rps29, Glut Neurons
  Change: Down
  Mean-Ket: 0.978
  logFC: −0.136
Rtn1, Glut Neurons
  Change: Down
  Mean-Ket: 1.210
  logFC: −0.185
Saa3, Astrocytes
  Change: Up
  Mean-Ket: 1.697
  logFC: 0.254
Saa3, Glut Neurons
  Change: Up
  Mean-Ket: 1.494
  logFC: 0.193
Sec23b, Glut Neurons
  Change: Down
  Mean-Ket: 2.447
  logFC: −0.109
Sec23ip, Glut Neurons
  Change: Down
  Mean-Ket: 2.674
  logFC: −0.107
Slc23a1, Glut Neurons
  Change: Down
  Mean-Ket: 2.215
  logFC: −0.114
Slc25a4, Glut Neurons
  Change: Down
  Mean-Ket: 0.872
  logFC: −0.125
Snca, Glut Neurons
  Change: Down
  Mean-Ket: 0.835
  logFC: −0.147
Swt1, Glut Neurons
  Change: Down
  Mean-Ket: 2.617
  logFC: −0.085
Synb, Glut Neurons
  Change: Down
  Mean-Ket: 1.730
  logFC: −0.118
Syne1, Astrocytes
  Change: Up
  Mean-Ket: 1.068
  logFC: 0.128
Timeless, Glut Neurons
  Change: Down
  Mean-Ket: 2.582
  logFC: −0.106
Tmsb4x, Glut Neurons
  Change: Down
  Mean-Ket: 1.829
  logFC: −0.167
Tpd52, Astrocytes
  Change: Down
  Mean-Ket: 1.199
  logFC: −0.145
Trpc4ap, Glut Neurons
  Change: Down
  Mean-Ket: 1.729
  logFC: −0.115
Tuba1a, Astrocytes
  Change: Down
  Mean-Ket: 1.483
  logFC: −0.162
Ube2k, Glut Neurons
  Change: Down
  Mean-Ket: 2.844
  logFC: −0.099
Unc13d, Astrocytes
  Change: Down
  Mean-Ket: 1.469
  logFC: −0.146
Usp34, Glut Neurons
  Change: Down
  Mean-Ket: 2.142
  logFC: −0.099
Vascular Cells, ketamine 10 mg/kg i.p.
  Flna Mean-Ket: 2.309
[2]
  Flna Change: Up
  Flna logFC: 2.044
Washc4, Glut Neurons
  Change: Down
  Mean-Ket: 2.856
  logFC: −0.092
Wdr12, Glut Neurons
  Change: Down
  Mean-Ket: 2.770
  logFC: −0.102
Yae1d1, Glut Neurons
  Change: Down
  Mean-Ket: 1.738
  logFC: −0.143
Ythdc1, Astrocytes
  Change: Down
  Mean-Ket: 1.822
  logFC: −0.144
Zcchc4, Glut Neurons
  Change: Down
  Mean-Ket: 0.973
  logFC: −0.113
Zfp113, Glut Neurons
  Change: Down
  Mean-Ket: 2.767
  logFC: −0.090
Zfp369, Glut Neurons
  Change: Up
  Mean-Ket: 1.005
  logFC: 0.207
astrocytes
  genes differentially expressed exclusively in one cell type: 27
Endothelial cells
  genes differentially expressed exclusively in one cell type: 1
Glutamatergic neurons
  genes differentially expressed exclusively in one cell type: 135
Glutamatergic neurons, all DEGs
  DEGs in glutamatergic neurons: 165
In 7 of the 13 clusters, ketamine 10 mg/kg vs saline
  total differentially expressed genes (DEGs): 263
Ketamine 10 mg/kg BW i.p., 2 days post-injection
  relative cell type composition for each cluster, ketamine vs saline: no significant differences
mt-Atp6, Astrocytes
  Change: Up
  Mean-Ket: 2.236
  logFC: 0.106
mt-Cytb, Astrocytes
  Change: Up
  Mean-Ket: 2.746
  logFC: 0.093
mt-Nd2, Astrocytes
  Change: Up
  Mean-Ket: 1.340
  logFC: 0.132
mt-Nd4, Astrocytes
  Change: Up
  Mean-Ket: 2.165
  logFC: 0.125
oligodendrocytes
  genes differentially expressed exclusively in one cell type: 16
Vascular cells
  genes differentially expressed exclusively in one cell type: 1
